Experiments:
Assay type in all cases: cell-based, human
[1] = test system: hESC-derived primitive streak; assay: Paraxial versus lateral/cardiac mesoderm specification from primitive streak; details: for paraxial mesoderm induction (qPCR day 2): ACF with DMH1 1 μM or LDN193189 250 nM, CDF with SB-505124 2 μM or A-83-01 1 μM, 24 hours
Experimental: Subsequently, day 1 anterior primitive streak was briefly washed (DMEM/F12) and differentiated towards day 2 paraxial mesoderm for 24 hours (1 μM A-83-01+3 μM CHIR99021+250 nM LDN-193189+20 ng/mL FGF2). Separately, day 1 mid primitive streak was differentiated towards day 2 lateral mesoderm for 24 hours (1 μM A-83-01+30 ng/mL BMP4+1 μM C59; with 2 μM SB-505124 sometimes used instead of A-83-01).
B) To assess whether FGF/ERK signaling was permissive for both paraxial and lateral/cardiac mesoderm specification, hESCs were differentiated into primitive streak for 24 hours, and then transferred into (i) A-83-01+DM3189 (“AD”; permissive for paraxial mesoderm) or (iii) A-83-01+BMP4+C59 (“AB+C59”; permissive for lateral/cardiac mesoderm) for 24 hours in the presence or absence of a FGF agonist (FGF2, 10-20 ng/mL), an FGFR inhibitor (PD173074, 100 nM) or a MAPK/ERK inhibitor (PD0325901, 500 nM) for 24 hours and qPCR for all experiments was conducted on day 2 (that is, after 48 total hours of hESC differentiation). To assess whether TGFβ signaling altered paraxial, intermediate and lateral/cardiac mesoderm specification, hESCs were differentiated into primitive streak for 24 hours, and then transferred into (ii) DM3189+FGF2 (“DF”; permissive for paraxial mesoderm) or (iv) BMP4+C59 (“B+C59”; permissive for lateral/cardiac mesoderm) for 24 hours in the presence of a TGFβ agonist (Activin, 10-25 ng/mL) or a TGFβR inhibitor (A-83-01, 1 μM) for 24 hours or (v) BMP4 (3 ng/mL)+FGF2 (20 ng/mL) (“B3F20”) for 24 hours in the presence of a TGFβ agonist (Activin, 3-25 ng/mL) or a TGFβR inhibitor (A-83-01, 1 μM) and qPCR for all experiments was conducted on day 2 (that is, after 48 total hours of hESC differentiation). […] Therefore, hESCs were differentiated towards primitive streak for 24 hours, and then subsequently transferred into (i) A-83-01+CHIR99021+FGF2 (ACF) in the presence or absence of one of two BMPR inhibitors (DMH1, 1 μM or LDN193189, 250 nM) for 24 hours and qPCR was conducted on day 2. Alternately, hESC-derived PS was transferred into (ii) CHIR99021+DM3189+FGF2 (CDF) for 24 hours in the presence or absence of a TGFβ agonist (25 ng/mL Activin) or one of two TGFβR inhibitors (SB-505124, 2 μM or A-83-01, 1 μM) for 24 hours and qPCR was conducted on day 2. […] E) To test the role of FGF in lateral mesoderm induction (on day 2 of hESC differentiation), NKX2.5-GFP hESCs were differentiated into mid primitive streak for 24 hours, and then were treated with BMP4+C59+SB505124 in the presence of an FGF agonist (FGF2, 20-50 ng/mL) or a FGFR inhibitor (PD173074, 100 nM) or a MAPK/ERK inhibitor (PD0325901, 500 nM) for 24 hours, and then all cultures were treated with BMP4+C59+SB505124+FGF2 for 24 hours more before being harvested on day 3 for FACS.

lateral mesoderm = assay: Forelimb versus hindlimb progenitor specification from lateral mesoderm; details: for competence of lateral mesoderm for forelimb fate: lateral mesoderm induced in presence of retinoid antagonists
Experimental: Undifferentiated hPSCs (wild-type H7 as well as TBX5-Venus V19-2 H9 hESCs) were maintained in mTeSR1 media on Geltrex-coated plates. As described, they were differentiated into mid primitive streak for 24 hours (D0-1; 30 ng/mL Activin+40 ng/mL BMP4+6 μM CHIR99021+20 ng/mL FGF2+100 nM PIK90) and subsequently differentiated into lateral mesoderm (D1-2; 1 μM A-83-01+30 ng/mL BMP4+1 μM C59), with the inclusion of 50 nM of TTNPB or 2 μM ATRA on D1-2 for trunk lateral mesoderm that was subsequently competent for forelimb differentiation.
Day 2 trunk lateral mesoderm was differentiated into day 3 forelimb progenitors (D2-3; 1 μM A-83-01+1 μM DMH1+3 μM CHIR99021). By contrast, day 2 non-trunk lateral mesoderm was differentiated into day 3 hindlimb progenitors (D2-3; 25 ng/mL Activin+1 μM DMH1+3 μM CHIR99021).

day 2 paraxial mesoderm = assay: Early somite progenitor formation from paraxial mesoderm, qPCR; details: 24 hours
Experimental: Day 2 paraxial mesoderm was briefly washed (DMEM/F12) and further differentiated into day 3 early somite/somitomere precursors for 24 hours (1 μM A-83-01+250 nM LDN-193189+1 μM C59+500 nM PD0325901). Subsequently, day 3 early somites were dorsoventrally patterned into either ventral somites/sclerotome (5 nM 21K+1 μM C59) or dorsal somites/dermomyotome (3 μM CHIR99021+150 nM Vismodegib). Sclerotome induction was conducted for 48-72 hours (leading to day 5-6 ventral somite progenitors). For dermomyotome induction, sometimes dermomyotome was induced in the presence of 50 ng/mL BMP4 to upregulate PAX7 after 48 hours of BMP4+CHIR99021+Vismodegib differentiation (leading to day 5 dermomyotome progenitors). Media was changed 24 hours for all steps.

hESCs = assay: Primitive streak (PS) induction from hESCs, qPCR
Experimental: As aforementioned, after overnight plating, hPSCs were briefly washed (with DMEM/F12) and then differentiated into either anterior primitive streak (30 ng/mL Activin A+4 μM CHIR99021+20 ng/mL FGF2+100 nM PIK90; for subsequent paraxial mesoderm induction) or mid primitive streak ([…] Activin A+40 ng/mL BMP4+6 μM CHIR99021+20 ng/mL FGF2+100 nM PIK90; for subsequent cardiac mesoderm induction) for 24 hrs.
Total cDNA was diluted 1:10-1:30 in H2O and qPCR was performed with the SensiFAST SYBR Lo-ROX Kit (Bioline) with 10 μL qPCR reactions per well in a 384-well plate: 5.0 μL 2× qPCR Master Mix+4.6 μL cDNA (totaling ˜120 ng of cDNA)+0.4 μL of 10 μM primer stock (5 μM forward+5 μM reverse primers). In general, gene-specific primer pairs were tested for (1) specificity of amplicon amplification (only one peak on a dissociation curve) and (2) linearity of amplicon amplification (linear detection of gene expression in cDNA samples serially diluted seven times over two orders of magnitude, with 90-110% efficiency of amplification deemed acceptably linear). After qPCR plates were prepared by arraying sample-specific cDNAs and gene-specific primers, they were sealed and briefly centrifuged (5 mins). 384-well qPCR plates and their adhesive sealing sheets were obtained from Thermo (AB1384 and AB0558, respectively). qPCR plates were run on a 7900HT Fast Real-Time PCR System (Applied Biosystems) with the following cycling parameters: initial dissociation (95° C., 2 mins) followed by 40 cycles of amplification and SYBR signal detection (95° C. dissociation, 5 seconds; 60° C. annealing, 10 seconds; followed by 72° C. extension, 30 seconds), with a final series of steps to generate a dissociation curve at the end of each qPCR run. During qPCR data analysis, the fluorescence threshold to determine Ct values was set at the linear phase of amplification; other qPCR data analysis methods including qPCR heatmap generation using the GenePattern platform (Broad Institute) were described previously by Loh et al., 2014, the disclosure of which is incorporated herein by reference in its entirety.
E) To assess whether inducing PS in the presence of TGFβ signaling altered its downstream potential to form different kinds of mesoderm, (i) H7 hESCs were differentiated into PS with CHIR99021+FGF2+PIK90 (CFK) for 24 hours in the presence or absence of increasing amounts of Activin (10-100 ng/mL), and then were transferred into paraxial mesoderm induction conditions (A-83-01+CHIR99021+DM3189+FGF2) for 24 hrs, and qPCR was conducted or (ii) H7 hESCs were differentiated into PS with BMP4 (10 ng/mL)+CHIR99021+FGF2+PIK90 (B10CFK) for 24 hours in the presence or absence of increasing amounts of Activin (10-100 ng/mL), and then were transferred into lateral/cardiac mesoderm inductions (A-83-01+BMP4+C59) for 24 hours and qPCR was conducted. […] F) To assess whether inducing PS in the presence of BMP signaling altered its downstream potential to form different kinds of mesoderm, H7 hESCs were differentiated into PS with Activin (10 ng/mL)+CHIR99021+FGF2+PIK90 (A10CFK) for 24 hours in the presence of absence of increasing amounts of BMP4 (1-40 ng/mL), and then were (i) transferred into paraxial mesoderm induction conditions (A-83-01+CHIR99021+DM3189+FGF2) for 24 hrs, and qPCR was conducted or were (ii) transferred into lateral/cardiac mesoderm inductions (A-83-01+BMP4+C59) for 24 hours and qPCR was conducted. […] G) H7 hESCs were differentiated into anterior primitive streak (30 ng/mL Activin+4 μM CHIR99021+20 ng/mL FGF2+100 nM PIK90) in the presence or absence of BMP4 (10 ng/mL) for 24 hours, and then transferred into paraxial mesoderm induction conditions for 24 hours before TBX6 immunostaining was conducted. […]

`CC(C)Oc1ccc(-c2cnc3c(-c4ccnc5ccccc45)cnn3c2)cc1` [DMH1, 4-[6-[4-(1-Methylethoxy)phenyl]pyrazolo[1,5-a]pyrimidin-3-yl]-quinoline] was tested, and the “paraxial mesoderm induction (qPCR day 2)” value [1] was “serve to induce paraxial mesoderm”.

In the case of `CC1(C)CC=C(C#Cc2ccccc2)c2cc(/C=C/c3ccc(C(=O)O)cc3)ccc21` [BMS493], the “competence of lateral mesoderm for forelimb fate” value (lateral mesoderm) is reported as “incompetent to subsequently assume a forelimb fate”.

For `Cc1cccc(-c2nn(C(=S)Nc3ccccc3)cc2-c2ccnc3ccccc23)n1` [A-83-01, 3-(6-Methyl-2-pyridinyl)-N-phenyl-4-(4-quinolinyl)-1H-pyrazole-1-carbothioamide], the “early somite marker expression (qPCR day 3)” value (shortened to “early somite marker expression”) (day 2 paraxial mesoderm; CDPR with A-83-01 1 μM) was “permissive for expression of early somite markers”, the “paraxial mesoderm induction (qPCR day 2)” value [1] was “serve to induce paraxial mesoderm” and the “NKX2.5-GFP+ cardiac mesoderm induction (FACS day 3)” value ([1]; BMP4 (50 ng/mL)+C59, 48 hours, SB-505124 2 μM or A-83-01 1 μM, P<0.01) was “increased NKX2.5-GFP^+ cardiac mesoderm induction”. For the same molecule, the PS differentiation (hESCs; CHIR99021+20 ng/mL FGF2+100 nM PIK90 with 2 μM SB-505124 or 1 μM A-83-01) was “strongly impairs PS differentiation”.

`Cl.c1ccc2c(-c3cnn4cc(-c5ccc(N6CCNCC6)cc5)cnc34)ccnc2c1` [LDN193189, 4-[6-[4-(1-Piperazinyl)phenyl]pyrazolo[1,5-a]pyrimidin-3-yl]-quinoline hydrochloride] was tested, and the “early somite marker expression” value (day 2 paraxial mesoderm; CPR with DM3189 250 nM) was “permissive for expression of early somite markers”, the “paraxial mesoderm induction (qPCR day 2)” value [1] was “serve to induce paraxial mesoderm” and the “PS formation and anterior-posterior patterning” value (hESCs; ACFK with LDN193189 250 nM or BMP4 3-100 ng/mL) was “fully abolished PS formation”.

`Cc1ccc(C2=CCC(C)(C)c3ccc(C#Cc4ccc(C(=O)O)cc4)cc32)cc1` [AGN193109] was tested, and the “competence of lateral mesoderm for forelimb fate” value (lateral mesoderm) was “incompetent to subsequently assume a forelimb fate”.

With `CC1=C(/C=C/C(C)=C/C=C/C(C)=C/C(=O)O)C(C)(C)CCC1` [all-trans retinoic acid] the “early somite marker expression” value (day 2 paraxial mesoderm; ACDP with RA 0.5-2 μM) was “dispensable for the expression of early somite markers”, the “early somite marker expression” value (day 2 paraxial mesoderm; ACDP with RA 0.5-2 μM, listed as RA) was “dispensable for early somite formation” and the “forelimb transcription factor TBX5 expression on D3” value (lateral mesoderm; RA signaling activated for 24 hours during lateral mesoderm induction (D1-2)) was “paramount for lateral mesoderm to subsequently express key forelimb transcription factor TBX5”.

B1: WNT3A: Wnt agonist, WNT family ligand (protein, UniProt P56704 19-352, looked up)
Protein Wnt-3a: SYPIWWSLAVGPQYSSLGSQPILCASIPGLVPKQLRFCRNYVEIMPSVAEGIKIGIQECQHQFRGRRWNCTTVHDSLAIFGPVLDKATRESAFVHAIASAGVAFAVTRSCAEGTAAICGCSSRHQGSPGKGWKWGGCSEDIEFGGMVSREFADARENRPDARSAMNRHNNEAGRQAIASHMHLKCKCHGLSGSCEVKTCWWSQPDFRAIGDFLKDKYDSASEMVVEKHRESRGWVETLRPRYTYFKVPTERDLVYYEASPNFCEPNPETGSFGTRDRTCNVSSHGIDGCDLLCCGRGHNARAERRREKCRCVFHWCCYVSCQECTRVYDVHTCK
For B1, the “PS marker expression (qPCR)” value (hESCs; 24 hours in A3B3F20, 300 ng/mL WNT3A or 0.5-8 μM CHIR99021) was “broadly induces both anterior (TBX6) and mid/posterior (FOXF1, MESP1) PS markers”.
